How the values were obtained:
Test in all cases: c-ponatinib pulldown LC-MS/MS
Format in all cases: binding
YWHAQ = biological target: T1, YWHAQ (Homo sapiens, UniProt P27348)
T1 sequence (P27348 1-245): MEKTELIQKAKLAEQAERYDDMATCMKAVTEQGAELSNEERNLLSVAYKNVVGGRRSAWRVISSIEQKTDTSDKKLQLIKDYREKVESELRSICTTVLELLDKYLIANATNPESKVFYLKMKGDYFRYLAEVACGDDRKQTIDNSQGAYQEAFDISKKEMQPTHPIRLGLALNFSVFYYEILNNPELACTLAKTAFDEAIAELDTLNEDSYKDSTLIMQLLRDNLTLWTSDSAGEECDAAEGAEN
Summary of the method: (§1)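 Read-out: interaction P-value combining Mascot scores, Phenyx scores and spectral counts (Fisher's method), plus fold reduction of median spectral counts on free-compound competition. Proteins were enriched from 10 mg cell lysate on c-ponatinib beads, then trypsin-digested for LC-MS/MS.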

LCK = LCK (Homo sapiens, UniProt P06239)
Summary of the method: as §1

MLKL = biological target: T2, MLKL (Homo sapiens, UniProt Q8NB16)
T2 sequence (Q8NB16 1-471): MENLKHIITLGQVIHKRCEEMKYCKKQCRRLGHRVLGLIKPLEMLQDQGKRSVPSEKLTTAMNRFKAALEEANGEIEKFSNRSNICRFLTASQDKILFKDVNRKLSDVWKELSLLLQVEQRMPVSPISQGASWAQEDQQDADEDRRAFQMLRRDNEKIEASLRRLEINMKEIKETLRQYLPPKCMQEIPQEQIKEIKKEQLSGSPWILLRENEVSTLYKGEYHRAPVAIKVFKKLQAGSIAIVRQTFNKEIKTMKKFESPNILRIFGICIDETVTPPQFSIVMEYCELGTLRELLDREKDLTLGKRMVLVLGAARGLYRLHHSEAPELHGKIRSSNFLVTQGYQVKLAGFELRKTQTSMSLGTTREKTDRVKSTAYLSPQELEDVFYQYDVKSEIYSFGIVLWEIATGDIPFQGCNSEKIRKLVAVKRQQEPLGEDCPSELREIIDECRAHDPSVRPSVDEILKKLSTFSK
Summary of the method: as §1

BLK = BLK (Homo sapiens, UniProt P51451)
Summary of the method: as §1

YWHAB = biological target: T3, YWHAB (Homo sapiens, UniProt P31946)
T3 sequence (P31946 1-246): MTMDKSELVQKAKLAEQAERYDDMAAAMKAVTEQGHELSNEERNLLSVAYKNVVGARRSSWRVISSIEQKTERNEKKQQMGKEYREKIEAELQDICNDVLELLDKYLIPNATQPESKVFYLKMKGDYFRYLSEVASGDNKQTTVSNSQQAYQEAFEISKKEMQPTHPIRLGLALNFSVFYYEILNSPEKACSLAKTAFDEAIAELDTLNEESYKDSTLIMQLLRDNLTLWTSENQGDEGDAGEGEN
Summary of the method: as §1

TESK2 = TESK2 (Homo sapiens, UniProt Q96S53)
Summary of the method: as §1

MAPK14 = MAPK14 (Homo sapiens, UniProt Q16539)
Summary of the method: as §1

Sequence of BLK (P51451 whole entry): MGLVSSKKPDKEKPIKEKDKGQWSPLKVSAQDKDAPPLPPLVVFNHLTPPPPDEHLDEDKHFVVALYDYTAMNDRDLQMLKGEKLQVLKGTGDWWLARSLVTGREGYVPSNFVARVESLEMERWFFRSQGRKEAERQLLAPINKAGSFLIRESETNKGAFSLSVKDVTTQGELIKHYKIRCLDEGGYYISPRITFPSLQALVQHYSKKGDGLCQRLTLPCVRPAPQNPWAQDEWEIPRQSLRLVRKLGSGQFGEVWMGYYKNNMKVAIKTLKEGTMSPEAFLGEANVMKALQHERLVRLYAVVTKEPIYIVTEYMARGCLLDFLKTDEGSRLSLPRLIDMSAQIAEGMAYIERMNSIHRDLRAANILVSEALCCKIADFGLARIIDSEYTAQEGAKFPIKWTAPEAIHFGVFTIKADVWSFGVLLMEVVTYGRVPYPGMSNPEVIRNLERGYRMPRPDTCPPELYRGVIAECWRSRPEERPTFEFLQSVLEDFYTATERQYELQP
Sequence of LCK (P06239 whole entry): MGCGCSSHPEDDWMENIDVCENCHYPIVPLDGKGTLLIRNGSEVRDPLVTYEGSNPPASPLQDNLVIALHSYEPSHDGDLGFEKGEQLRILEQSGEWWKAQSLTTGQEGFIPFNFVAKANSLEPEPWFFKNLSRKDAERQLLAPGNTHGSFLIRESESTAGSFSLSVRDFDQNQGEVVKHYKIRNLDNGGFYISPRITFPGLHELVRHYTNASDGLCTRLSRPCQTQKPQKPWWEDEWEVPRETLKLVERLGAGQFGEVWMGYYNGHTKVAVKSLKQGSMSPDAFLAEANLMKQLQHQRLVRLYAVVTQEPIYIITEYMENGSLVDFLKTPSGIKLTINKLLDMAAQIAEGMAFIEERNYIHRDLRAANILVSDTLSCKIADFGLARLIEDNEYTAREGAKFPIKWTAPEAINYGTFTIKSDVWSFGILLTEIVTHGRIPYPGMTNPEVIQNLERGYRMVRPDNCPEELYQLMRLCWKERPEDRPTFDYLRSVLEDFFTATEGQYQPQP
Sequence of TESK2 (Q96S53 whole entry): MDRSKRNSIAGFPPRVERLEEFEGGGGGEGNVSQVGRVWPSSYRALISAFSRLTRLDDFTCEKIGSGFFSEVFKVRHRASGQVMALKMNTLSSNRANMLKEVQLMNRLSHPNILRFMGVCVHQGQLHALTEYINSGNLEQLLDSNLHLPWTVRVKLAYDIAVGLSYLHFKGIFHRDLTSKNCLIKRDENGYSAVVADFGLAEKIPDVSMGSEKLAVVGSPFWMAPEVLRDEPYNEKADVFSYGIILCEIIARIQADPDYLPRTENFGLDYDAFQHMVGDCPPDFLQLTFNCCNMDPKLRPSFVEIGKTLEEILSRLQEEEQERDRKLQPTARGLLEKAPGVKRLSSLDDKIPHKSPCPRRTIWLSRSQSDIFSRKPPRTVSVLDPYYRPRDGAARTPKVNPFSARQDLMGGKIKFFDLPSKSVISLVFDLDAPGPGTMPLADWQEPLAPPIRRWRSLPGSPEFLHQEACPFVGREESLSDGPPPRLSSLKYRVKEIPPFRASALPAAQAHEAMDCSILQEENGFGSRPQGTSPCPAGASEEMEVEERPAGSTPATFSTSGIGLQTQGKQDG
Sequence of MAPK14 (Q16539 whole entry): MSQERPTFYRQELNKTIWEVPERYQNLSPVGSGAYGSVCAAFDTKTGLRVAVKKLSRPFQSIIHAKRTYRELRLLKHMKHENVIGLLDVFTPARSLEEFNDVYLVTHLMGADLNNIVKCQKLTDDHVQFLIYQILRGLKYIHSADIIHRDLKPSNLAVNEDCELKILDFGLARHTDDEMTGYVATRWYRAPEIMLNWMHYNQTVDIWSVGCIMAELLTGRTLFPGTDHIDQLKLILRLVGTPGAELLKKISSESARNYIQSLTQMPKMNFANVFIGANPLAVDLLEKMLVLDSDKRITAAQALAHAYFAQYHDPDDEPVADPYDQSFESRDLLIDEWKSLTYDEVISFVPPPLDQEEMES

Cc1ccc(C(=O)Nc2ccc(CN3CCN(CCCN)CC3)c(C(F)(F)F)c2)cc1C#Cc1cnc2cccnn12 [c-ponatinib]
Av. SC comp. (YWHAQ; + free ponatinib): 1.25 | Total SC comp. (YWHAQ; + free ponatinib): 5 | Av. SC (YWHAQ; no competitor): 9 | Total SC (YWHAQ; no competitor): 36 | Av. SC comp. (LCK; + free ponatinib): 0.75 | Total SC comp. (LCK; + free ponatinib): 3 | Av. SC (LCK; no competitor): 98.5 | Total SC (LCK; no competitor): 394 | Av. SC comp. (MLKL; + free ponatinib): 0 | Total SC comp. (MLKL; + free ponatinib): 0 | Av. SC (MLKL; no competitor): 5 | Total SC (MLKL; no competitor): 20 | Av. SC comp. (BLK; + free ponatinib): 0 | Total SC comp. (BLK; + free ponatinib): 0 | Av. SC (BLK; no competitor): 9.5 | Total SC (BLK; no competitor): 38 | Av. SC comp. (YWHAB; + free ponatinib): 1 | Total SC comp. (YWHAB; + free ponatinib): 4 | Av. SC (YWHAB; no competitor): 7 | Total SC (YWHAB; no competitor): 28 | Av. SC comp. (TESK2; + free ponatinib): 0 | Total SC comp. (TESK2; + free ponatinib): 0 | Av. SC (TESK2; no competitor): 5 | Total SC (TESK2; no competitor): 20 | Av. SC comp. (MAPK14; + free ponatinib): 7.25 | Total SC comp. (MAPK14; + free ponatinib): 29 | Av. SC (MAPK14; no competitor): 79.25 | Total SC (MAPK14; no competitor): 317

From publication PMC4669708 (Cell Death & Disease, 2015)
